Assay results from patent US20180284123A1, “BARCODED RAPID ASSAY PLATFORM USEFUL FOR EFFICIENT ANALYSIS OF CANDIDATE MOLECULES AND METHODS OF MAKING AND USING THE PLATFORM” (California Institute of Technology, priority 2017, published 2018).
Numbered stars: 1 amine (or outer) side, 2 acyl side, 3 side chain; on linkers, the order of the positions; unused ones are H or OH. Bridge positions count the residues as written; N and C are the ends. Square brackets hold non-standard residues; d marks the D form. Triazole bridges read from a SMILES are 1,4-linked. Peptide text beside a SMILES is read from it. * marks the point of attachment. ξ: configuration not given here. Biotin = O=C1N[C@H]2[C@H](CS[C@H]2CCCCC(=O)*)N1; Lys(N3) = [N-]=[N+]=NCCCC[C@H](N)C(=O)O; ξLys(N3) = [N-]=[N+]=NCCCCC(N)C(=O)O; Ethylenediamine = C(CN[*:2])N[*:1]; PEG5 = NCCOCCOCCOCCOCCOCCC(=O)O; Pra = C#CC[C@H](N)C(=O)O

What was measured:
[1] = molecular target: T1, KRAS (Homo sapiens, UniProt P01116); assay: B-RAP surface immunofluorescent assay, PCC ligand KRas EC50; format: binding; details: for Avg F635, Full Centroid / Avg F635, Full Lane / avg F635, Left Part Centroid / avg F635, Middle Part Centroid / avg F635, Right Part Centroid: 10 μM KRas well of plate #1, pixel by pixel; for avg F635, Left Part Centroid: left part of centroid; for avg F635, Middle Part Centroid: middle part of centroid; for avg F635, Right Part Centroid: right part of centroid; for EC50: 13-point KRas concentration series, each point in decaplicate, Hill coefficient=1
T1 construct: His6-tagged human KRas Isoform 4B (residues 1-169); His6; made in house; host or cells: E. coli BL21(DE3), PQE80 vector
T1 sequence (P01116 1-169 isoform P01116-2): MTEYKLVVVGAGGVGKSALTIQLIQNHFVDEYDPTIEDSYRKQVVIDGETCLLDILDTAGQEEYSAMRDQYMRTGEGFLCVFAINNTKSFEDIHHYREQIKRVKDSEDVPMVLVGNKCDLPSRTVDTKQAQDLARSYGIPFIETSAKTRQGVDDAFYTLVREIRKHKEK
Description: The barcode patterned microchip surface was partitioned into 16 individual microwells using a pre-fabricated PDMS slab. Individual biotinylated PCC candidates were complexed to specific SAC-DNA conjugates, combined into a cocktail, and then self-assembled, via DNA hybridization, onto designated barcode stripes (FIGS. 2-4). Incubation with a specific concentration of the target protein preceded incubation with a primary capture antibody and then a fluorophore-conjugated secondary detection antibody. During assay execution, each well represents a different target concentration or assay condition. Once developed, the fluorescence of the barcodes is digitized using a GenePix 4400A array scanner, with an excitation laser power optimized to a power level of 40% (60 W), which maximizes detection sensitivity while also minimizing signal saturation. Data extraction occurs using 10 μm radius circles, taken along the length of a barcode stripe. A fluorescence signal representing the average of all the pixels within a given circle is collected. A total of ten circles (data-blocks) are measured along a 180 μm span of the middle portion for each individual barcode lane in a given well. 10 μM KRas protein gave an average F635 of 47,868.7, with a standard deviation of 4154.53. 1 μM KRas protein gave an average F635 of 11437.6, with a standard deviation of 1602.202. 100 nM KRas protein gave an average F635 of 1780.6, with a standard deviation of 236.38. This illustrates the intensity across a stripe compared to the intensity from the data-block extraction. After extraction the data is background corrected. The background signal arises from (a) non-specific binding of the primary and secondary antibodies (independent of [KRas]), but can vary across different barcode stripes), and (b) non-specific binding of KRas protein ([KRas] dependent). Background (a) was assessed by measuring the average signal in the null protein well for each stripe. Background (b) was assessed by measuring the average fluorescence for the dummy ligand (Biotin* probe) that was in each well. The background subtracted data was then graphed in Graphpad Prism 7 and fitted to a sigmoidal curve (Hill coefficient=1).
Measurement of PCC Ligand KRas EC50 with the Barcode Rapid Assay Platform
Protein Incubation Buffer: Tris-buffered saline (TBS)+0.05% Tween20 (TBST)
A pre-fabricated PDMS template was aligned onto the DNA barcode microchip, and the microchip was taped into a 10 cm petri dish. The wells on the platform were wet with 50 μL PBST before filling with blocking buffer and placing into a 37° C. incubator for 1 hr. Concurrently, 40 μL 1% BSA in PBS solutions containing 750 nM of a SAC-DNA conjugate and 3.75 μM of one biotinylated PCC ligand or biotin-A20-Cy3 blank were prepared for each SAC-DNA conjugate. The biotinylated ligands were allowed to complex with the SAC protein for one hour before pooling the SAC-DNA-ligand solutions (final [SAC-DNA-ligand conjugates]=50 nM). The blocking buffer was aspirated and each well was loaded with the SAC-DNA-ligand conjugates cocktail for hybridization with the DNA barcode at 37° C. for one hour. The wells were washed with PBST (3×) before loading serially diluted solutions of KRas protein in protein buffer (0 to 400 μM). After shaking at RT for one hour, the wells were rinsed with PBST (5×), making sure to pipet up/down with the first addition of PB ST. A (100:1) dilution of CST rabbit anti-Ras Ab (#39655) in 1° ab buffer was added to each well before shaking at RT for one hour. After rinsing the wells with PBST (3×), the wells were loaded with a (200:1) dilution of Abcam goat anti-rabbit-Alexafluor 647 linked ab (ab150079) in 2° ab buffer before shaking at RT for one hour. A final rinse of the wells with PBST (3×) proceeded peeling off the PDMS slab from the barcode microchip and dipping the barcode into the following solutions: PBS, (1:1) PBS: MQ H2O, MQ H2O (2×). […]

[2] = molecular target: T1, KRAS; assay: GTPase Glo assay of intrinsic KRas GTPase activity; format: biochemical
Description: The intrinsic GTPase activity of WT KRas protein was measured using the GTPase-Glo Assay Kit (#V7681) from Promega Corporation (Madison, Wis.) on opaque white 96-well plates (#6005290) from Perkin Elmer Life Sciences (Waltham, Mass.). Luminescence was recorded on the Flexstation 3 plate reader used for multi-well ELISAs.
KRas inhibition assays were carried out using a GTPase Glo Assay kit from Promega. Each candidate inhibitor PCC was initially tested by combining a concentration series of the ligand with 10 μM KRas protein in an opaque white 96-well plate and incubated with 5 μM 5′-guanosine triphosphate (GTP) for two hours. The remaining GTP was […]. Chemiluminescence was measured using a Flexstation 3 plate reader (All wavelengths mode, 500 ms integration), and plotted using Graphpad Prism 7. […] All measurements were done in triplicate.
The GTPase assays were run in triplicate on a multi-well plate using the GTPase Glo Assay kit from Promega with 10 μM KRas protein and varying concentrations of ligand (1 μM to 100 μM L1a, L8 and 2.5 μM to 250 μM L2). All reagents were warmed to RT before use. A single opaque white 96-well plate was charged with 12.5 μL GTPase/GAP buffer (GTPase buffer w/ 1 mM DTT), 10 μM KRas in GTPase/GAP buffer, or 10 μM KRas protein with either L1a, L2, or L8. Running the survey assays on the same plate allowed for direct comparison of the curves, but it necessitated the use of the first row/column on the multi-well plate which introduced some noise to the low ligand concentration points. A 12.5 μL aliquot of a 2×GTP solution (10 μM rGTP in GTPase Buffer) was then added to each well before allowing the plate to shake at RT for two hours (initial GTPase inhibition assay). The GTPase Glo reagent was reconstituted in the GTPase Glo Buffer (4 μL GTPase Glo (500×) reagent, 1996 μL GTPase Glo Buffer, 1 μL 10 mM ADP) immediately before adding 25 μL to each well. Shaking at RT for thirty minutes preceded the addition of 50 μL of the Detection reagent to each well. The plate was covered and incubated for a total of ten minutes before reading the luminescence with a Flexstation 3 plate reader (All wavelengths mode, 500 ms integration time), graphed using Graphpad Prism 7 (Sigmoidal 4PL mode), and an IC50 value was calculated.
For the full GTPase inhibition curve for L2, the above procedure was followed with the change that the incubation with KRas occurred over or four hours rather than two.
Consequently, the best three ligand fractions L1a, L2, and L8 were probed in a functional, solution phase assay for their ability to disrupt the intrinsic GTPase enzymatic activity of KRas protein. This assay measures the enzymatic conversion of GTP to GDP by KRas—a process that can potentially be inhibited. After incubation, an added GTPase Glo™ reagent converts the remaining GTP to ATP, and the ATP is converted into a chemiluminescent signal. Thus, higher chemiluminescence translates to lower KRas enzymatic activity. For the measurements, a fixed [KRas protein] is incubated with varying ligand concentrations. A concentration of 10 μM KRas protein was selected after generating a standard curve for the intrinsic KRas GTPase activity. KRas is a slow acting enzyme, so a KRas/PCC incubation time of two hours was used for the initial survey scans, while four hour incubation times were used for the higher resolution data. […] Thus, the modulation of KRas activity by L2 was recorded with an expanded concentration range.

[3] = survey assays, 10 μM KRas, two hour incubation

Row | Avg F635, Full Centroid [1] | Avg F635, Full Lane [1] | avg F635, Left Part Centroid [1] | avg F635, Middle Part Centroid [1] | avg F635, Right Part Centroid [1] | effect on the KRas protein's GTPase activity [2, 3] | EC50 [1] [µM] | concentration above which ligand switches from weakly activating to strongly inhibiting ([2]; expanded concentration range, 10 μM KRas) | Hill coefficient of the titration curve ([2]; full inhibition curve, four-hour incubation) | rGTP hydrolyzed ([2]; ligand-only (no KRas) wells) | relative potency as inhibitor of KRas GTPase activity [2, 3] | Structure (SMILES)
1 | 20134 | 18768 | 17838 | 20725 | 21906 | inhibitory effect | – | – | – | – | – | CCC(C)[C@@H]1NC(=O)CNC(=O)[C@H](Cc2cnc[nH]2)NC(=O)[C@@H](N)Cc2cn(nn2)CCCC[C@@H](C(=O)NCCOCCOCCOCCOCCOCCC(=O)NCCNC(=O)CCCC[C@@H]2SC[C@@H]3NC(=O)N[C@@H]32)NC(=O)CNC(=O)[C@H](C(C)C)NC1=O (single isomer, unassigned) [Ligand L1a, HGIVG]
2 | 36651 | 32992 | 32020 | 37152 | 40918 | – | 4.22 ± 0.71 | – | – | – | – | CC(C)[C@@H]1NC(=O)[C@@H](N)Cc2cn(nn2)CCCC[C@@H](C(=O)NCCOCCOCCOCCOCCOCCC(=O)NCCNC(=O)CCCC[C@@H]2SC[C@@H]3NC(=O)NC32)NC(=O)[C@H](Cc2ccc(O)cc2)NC(=O)[C@@H]2CCCN2C(=O)[C@H](C(C)C)NC(=O)[C@H](CCC(N)=O)NC1=O (single isomer, unassigned) [Ligand L7a, VQVPY]
3 | 16195 | 14791 | 12956 | 16944 | 18781 | – | 25.3 ± 8.9 | – | – | – | – | CC(C)[C@@H]1NC(=O)[C@@H](N)Cc2cn(nn2)CCCC[C@@H](C(=O)NCCOCCOCCOCCOCCOCCC(=O)NCCNC(=O)CCCC[C@@H]2SC[C@@H]3NC(=O)NC32)NC(=O)[C@H](Cc2ccc(O)cc2)NC(=O)[C@@H]2CCCN2C(=O)[C@H](C(C)C)NC(=O)[C@H](CCC(N)=O)NC1=O (single isomer, unassigned) [Ligand L7b, VQVPY]
4 | – | – | – | – | – | inhibitory effect | – | above 20 μM | ~10 | Less than 5% | most potent | CC(C)[C@@H]1NC(=O)[C@@H]2CCCN2C(=O)[C@H](C(C)C)NC(=O)CNC(=O)[C@H](CCC(=O)O)NC(=O)[C@@H](N)Cc2cn(nn2)CCCCC(C(=O)NCCOCCOCCOCCOCCOCCC(=O)NCCNC(=O)CCCC[C@@H]2SC[C@@H]3NC(=O)N[C@@H]32)NC1=O (stereo partly shown) [Ligand L2, EGVPV] (H-[Pra]EGVPV[ξLys(N3)][PEG5]-{Ethylenediamine-Biotin}; triazole 1-7)
5 | 17836 | 15968 | 15645 | 19382 | 18546 | – | – | – | – | – | – | CC(C)[C@@H]1NC(=O)[C@@H](N)Cc2cn(nn2)CCCC[C@@H](C(=O)NCCOCCOCCOCCOCCOCCC(=O)NCCNC(=O)CCCC[C@@H]2SC[C@@H]3NC(=O)N[C@@H]32)NC(=O)[C@H](Cc2ccc(O)cc2)NC(=O)[C@@H]2CCCN2C(=O)[C@H](C(C)C)NC(=O)[C@H]([C@@H](C)O)NC1=O [Ligand L6] (H-[Pra]VTVPY[Lys(N3)][PEG5]-{Ethylenediamine-Biotin}; triazole 1-7)
6 | 53496 | 48537 | 48599 | 54620 | 57411 | – | – | – | – | – | – | CC(C)[C@@H]1NC(=O)[C@@H](N)Cc2cn(nn2)CCCC[C@@H](C(=O)NCCOCCOCCOCCOCCOCCC(=O)NCCNC(=O)CCCC[C@@H]2SC[C@@H]3NC(=O)NC32)NC(=O)[C@H](Cc2ccc(O)cc2)NC(=O)[C@@H]2CCCN2C(=O)[C@H](C(C)C)NC(=O)[C@H](CCC(N)=O)NC1=O (stereo partly shown) [Ligand L7, VQVPY]
7 | – | – | – | – | – | inhibitory effect | – | – | – | – | – | C[C@@H](O)[C@@H]1NC(=O)[C@@H](N)Cc2cn(nn2)CCCC[C@@H](C(=O)NCCOCCOCCOCCOCCOCCC(=O)NCCNC(=O)CCCC[C@@H]2SC[C@@H]3NC(=O)N[C@@H]32)NC(=O)[C@H](Cc2ccc(O)cc2)NC(=O)[C@H](Cc2ccccc2)NC(=O)[C@H](CC(N)=O)NC(=O)[C@H](CC(=O)O)NC1=O [Ligand L8, TDNFY] (H-[Pra]TDNFY[Lys(N3)][PEG5]-{Ethylenediamine-Biotin}; triazole 1-7)
